Reference: patent publication US20260258035A1, “FIVE-MEMBERED AND SIX-MEMBERED NITROGEN-CONTAINING COMPOUND, AND INTERMEDIATE, PREPARATION METHOD AND USE THEREOF” (HANGZHOU SYNRX THERAPEUTICS BIOMEDICAL TECHNOLOGY CO., LTD., priority 2022, published 2026)

Key:
HCC1806 = assay: Cell viability assay (CellTiter-Glo); assay type: cell-based, Human; conditions: Homo sapiens, HCC1806, 168 h, HCC1806, 7 days, CellTiter-Glo; read-out: IC50 (nM) in cell viability assay
PARG = PARG (Homo sapiens, UniProt Q86W56); assay: Biochemical assay (PARG, TFMU-ADPr substrate); conditions: PARG, TFMU-ADPr substrate
Sequence of PARG (Q86W56 whole entry): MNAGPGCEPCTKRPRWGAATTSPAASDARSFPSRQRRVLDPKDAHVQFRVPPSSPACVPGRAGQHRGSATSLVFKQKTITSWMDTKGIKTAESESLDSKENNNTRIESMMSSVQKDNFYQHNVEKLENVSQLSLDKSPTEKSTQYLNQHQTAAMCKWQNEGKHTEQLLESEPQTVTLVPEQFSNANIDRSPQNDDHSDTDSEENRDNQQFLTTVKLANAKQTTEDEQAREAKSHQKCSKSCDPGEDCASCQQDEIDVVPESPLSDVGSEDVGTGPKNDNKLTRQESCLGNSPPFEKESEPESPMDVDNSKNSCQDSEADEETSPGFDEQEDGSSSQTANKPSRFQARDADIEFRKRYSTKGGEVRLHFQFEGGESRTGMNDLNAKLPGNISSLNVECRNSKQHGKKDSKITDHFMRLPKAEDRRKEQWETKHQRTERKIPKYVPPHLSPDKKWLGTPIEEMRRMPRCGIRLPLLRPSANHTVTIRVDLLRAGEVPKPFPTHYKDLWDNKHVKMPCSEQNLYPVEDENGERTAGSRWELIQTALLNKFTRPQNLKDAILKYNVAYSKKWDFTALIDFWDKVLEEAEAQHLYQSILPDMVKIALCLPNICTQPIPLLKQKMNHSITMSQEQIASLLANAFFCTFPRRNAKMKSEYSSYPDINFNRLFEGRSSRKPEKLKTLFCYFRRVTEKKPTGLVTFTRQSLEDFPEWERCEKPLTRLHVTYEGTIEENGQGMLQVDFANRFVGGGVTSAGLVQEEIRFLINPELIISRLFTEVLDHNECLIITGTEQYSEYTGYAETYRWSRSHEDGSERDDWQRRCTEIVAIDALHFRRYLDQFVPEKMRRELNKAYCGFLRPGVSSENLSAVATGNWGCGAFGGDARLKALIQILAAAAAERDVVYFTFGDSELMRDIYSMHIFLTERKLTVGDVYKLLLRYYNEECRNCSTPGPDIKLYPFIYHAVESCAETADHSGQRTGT

Q: With `C[C@H]1CN(c2cc(S(=O)(=O)NC3(C)COC3)cn3c(-c4nnc(C(F)(F)F)s4)ncc23)C[C@H](C)N1` [Example 184, 8-((3S,5S)-3,5-dimethylpiperazin-1-yl)-N-(3-methyloxetan-3-yl)-3-(5-(trifluoromethyl)-1,3,4-thiadiazol-2-yl)imidazo[1,5-a]pyridine-6-sulfonamide] as the compound, how does the IC50 (HCC1806) read?
A: 18 nM

Q: And the IC50 (PARG)?
A: 1.15 nM

Q: `CC(C)C(=O)N1CCN(c2c(F)c(S(=O)(=O)NC3(C#N)CC3)cn3c(-c4nnc(C(F)(F)F)s4)ncc23)CC1` [Example 390, N-(1-cyanocyclopropyl)-7-fluoro-8-(4-isobutyrylpiperazin-1-yl)-3-(5-(trifluoromethyl)-1,3,4-thiadiazol-2-yl)imidazo[1,5-a]pyridine-6-sulfonamide] was tested. Which IC50 (HCC1806) did it give?
A: 793 nM

Q: And the IC50 (PARG)?
A: 28.2 nM

Q: `N#CC1(NS(=O)(=O)c2cc(N3CCN(C(=O)CO)CC3)c3cnc(-c4nnc(C(F)(F)F)s4)n3c2)CC1` [Example 276, N-(1-cyanocyclopropyl)-8-(4-(2-hydroxyacetyl)piperazin-1-yl)-3-(5-(trifluoromethyl)-1,3,4-thiadiazol-2-yl)imidazo[1,5-a]pyridine-6-sulfonamide] was tested. Which IC50 (HCC1806) did it give?
A: 1750 nM

Q: What about the IC50 (PARG) of the same compound?
A: 45.7 nM

Q: `[2H]c1nc(-c2nnc(C(F)F)s2)n2cc(S(=O)(=O)NC3(C)COC3)cc(N3C[C@H](C)N[C@@H](C)C3)c12` [Example 160, 3-(5-(difluoromethyl)-1,3,4-thiadiazol-2-yl)-8-((3S,5S)-3,5-dimethylpiperazin-1-yl)-N-(3-methyloxetan-3-yl)imidazo[1,5-a]pyridine-6-sulfonamide-1-d] was tested. Which IC50 (HCC1806) did it give?
A: 23.5 nM

Q: What about the IC50 (PARG) of the same compound?
A: 0.23 nM

Q: For `CN1CCC[C@@H]1C(=O)N1CCN(c2cc(S(=O)(=O)NC3(C)CC3)cn3c(-c4nnc(C(F)(F)F)s4)ncc23)CC1` [Example 325, 8-(4-(methyl-D-prolyl)piperazin-1-yl)-N-(1-methylcyclopropyl)-3-(5-(trifluoromethyl)-1,3,4-thiadiazol-2-yl)imidazo[1,5-a]pyridine-6-sulfonamide], which IC50 (HCC1806) is on record?
A: 120 nM

Q: And the IC50 (PARG)?
A: 4.46 nM

Q: For `COC1(C(=O)N2CCN(c3cc(S(=O)(=O)NC4(C)CC4)cn4c(-c5nnc(C(F)(F)F)s5)ncc34)CC2)CCC1` [Example 327, 8-(4-(1-methoxycyclobutane-1-carbonyl)piperazin-1-yl)-N-(1-methylcyclopropyl)-3-(5-(trifluoromethyl)-1,3,4-thiadiazol-2-yl)imidazo[1,5-a]pyridine-6-sulfonamide], which IC50 (HCC1806) is on record?
A: 6.13 nM

Q: What about the IC50 (PARG) of the same compound?
A: 0.15 nM

Q: Which IC50 (HCC1806) does the source give for `CC1(NS(=O)(=O)c2cc(N3CCN(C(=O)C4NCCS4)CC3)c3cnc(-c4nnc(C(F)(F)F)s4)n3c2)CC1` (centres unmarked) [Example 326, N-(1-methylcyclopropyl)-8-(4-(thiazolidine-2-carbonyl)piperazin-1-yl)-3-(5-(trifluoromethyl)-1,3,4-thiadiazol-2-yl)imidazo[1,5-a]pyridine-6-sulfonamide] here?
A: 257 nM

Q: And the IC50 (PARG)?
A: 4.82 nM

Q: What does the source list for `COC1(C(=O)N2CCN(c3cc(S(=O)(=O)NC4(C)CC4)cn4c(-c5nnc(C(F)F)s5)ncc34)CC2)CN(C)C1` [Example 310, 3-(5-(difluoromethyl)-1,3,4-thiadiazol-2-yl)-8-(4-(3-methoxy-1-methylazetidine-3-carbonyl)piperazin-1-yl)-N-(1-methylcyclopropyl)imidazo[1,5-a]pyridine-6-sulfonamide]?
A: IC50 (HCC1806): 38 nM; IC50 (PARG): < 0.1 nM

Q: `CNC1(C(=O)N2CCN(c3cc(S(=O)(=O)NC4(C)CC4)cn4c(-c5nnc(C(F)(F)F)s5)ncc34)CC2)CC1` [Example 318, 8-(4-(1-(methylamino)cyclopropane-1-carbonyl)piperazin-1-yl)-N-(1-methylcyclopropyl)-3-(5-(trifluoromethyl)-1,3,4-thiadiazol-2-yl)imidazo[1,5-a]pyridine-6-sulfonamide] was tested. Which IC50 (HCC1806) did it give?
A: 363 nM

Q: And the IC50 (PARG)?
A: 1.84 nM

Q: Which IC50 (HCC1806) does the source give for `N#CC1(NS(=O)(=O)c2cc(N3CCN(C(=O)[C@@H]4CCCO4)CC3)c3cnc(-c4nnc(C(F)(F)F)s4)n3c2)CC1` [Example 301, (S)-N-(1-cyanocyclopropyl)-8-(4-(tetrahydrofuran-2-carbonyl)piperazin-1-yl)-3-(5-(trifluoromethyl)-1,3,4-thiadiazol-2-yl)imidazo[1,5-a]pyridine-6-sulfonamide] here?
A: 436 nM

Q: What about the IC50 (PARG) of the same compound?
A: 50.1 nM

Q: Which IC50 (HCC1806) does the source give for `C[C@H]1CN(c2cc(S(=O)(=O)NC3(C)COC3)cn3c(-c4nnc(C(F)F)s4)ncc23)C[C@H](CN(C)C)O1` [Example 398, 3-(5-(difluoromethyl)-1,3,4-thiadiazol-2-yl)-8-((2S,6S)-2-((dimethylamino)methyl)-6-methylmorpholino)-N-(3-methyloxetan-3-yl)imidazo[1,5-a]pyridine-6-sulfonamide] here?
A: 992 nM

Q: What about the IC50 (PARG) of the same compound?
A: 27.5 nM

Q: Which IC50 (HCC1806) does the source give for `CN1CC(F)(F)C[C@@H]1C(=O)N1CCN(c2cc(S(=O)(=O)NC3(C)CC3)cn3c(-c4nnc(C(F)(F)F)s4)ncc23)CC1` [Example 353, (R)-8-(4-(4,4-difluoro-1-methylpyrrolidine-2-carbonyl)piperazin-1-yl)-N-(1-methylcyclopropyl)-3-(5-(trifluoromethyl)-1,3,4-thiadiazol-2-yl)imidazo[1,5-a]pyridine-6-sulfonamide] here?
A: 434 nM

Q: And the IC50 (PARG)?
A: 12.6 nM

Q: With `COCC1CN(c2cc(S(=O)(=O)NC3(CF)COC3)cn3c(-c4nnc(C(F)F)s4)ncc23)CCN1` (centres unmarked) [Example 356, 3-(5-(difluoromethyl)-1,3,4-thiadiazol-2-yl)-N-(3-(fluoromethyl)oxetan-3-yl)-8-(3-(methoxymethyl)piperazin-1-yl)imidazo[1,5-a]pyridine-6-sulfonamide] as the compound, how does the IC50 (HCC1806) read?
A: 305 nM

Q: And the IC50 (PARG)?
A: 6.31 nM

Q: Which results are given for `CC1(NS(=O)(=O)c2cc(N3CCN(C4CC4)CC3)c3cnc(-c4nnc(C(F)F)s4)n3c2)COC1` [Example 364, 8-(4-cyclopropylpiperazin-1-yl)-3-(5-(difluoromethyl)-1,3,4-thiadiazol-2-yl)-N-(3-methyloxetan-3-yl)imidazo[1,5-a]pyridine-6-sulfonamide]?
A: IC50 (HCC1806): 791 nM; IC50 (PARG): 41.4 nM

Q: For `N#CC1(NS(=O)(=O)c2cc(N3CCC(N)CC3)c3cnc(-c4nnc(C(F)(F)F)s4)n3c2)CC1` [Example 263, 8-(4-aminopiperidin-1-yl)-N-(1-cyanocyclopropyl)-3-(5-(trifluoromethyl)-1,3,4-thiadiazol-2-yl)imidazo[1,5-a]pyridine-6-sulfonamide], which IC50 (HCC1806) is on record?
A: 4500 nM

Q: With `O=S(=O)(NC1CC1)c1cc(N2Cc3c[nH]nc3C2)c2cnc(-c3nnc(C(F)(F)F)s3)n2c1` [Example 247, N-cyclopropyl-8-(2,6-dihydropyrrolo[3,4-c]pyrazol-5(4H)-yl)-3-(5-(trifluoromethyl)-1,3,4-thiadiazol-2-yl)imidazo[1,5-a]pyridine-6-sulfonamide] as the compound, how does the IC50 (HCC1806) read?
A: 27200 nM

Q: `N#CC1(NS(=O)(=O)c2cc(C#Cc3c[nH]cn3)c3cnc(-c4nnc(C(F)F)s4)n3c2)CC1` [Example 376, 8-((1H-imidazol-4-yl)ethynyl)-N-(1-cyanocyclopropyl)-3-(5-(difluoromethyl)-1,3,4-thiadiazol-2-yl)imidazo[1,5-a]pyridine-6-sulfonamide] was tested. Which IC50 (HCC1806) did it give?
A: 30000 nM

Q: How did the IC50 (HCC1806) turn out when `N#CC1(NS(=O)(=O)c2cc(C#Cc3cncs3)c3cnc(-c4nnc(C(F)F)s4)n3c2)CC1` [Example 374, N-(1-cyanocyclopropyl)-3-(5-(difluoromethyl)-1,3,4-thiadiazol-2-yl)-8-(thiazol-5-ylethynyl)imidazo[1,5-a]pyridine-6-sulfonamide] was run?
A: 2320 nM
